SMILES strings stand for the structures.

The target of the assay is T1, human NOX4 (Homo sapiens, UniProt Q9NPH5).
T1 construct: The full-length human NOX4 (NM_016931.3) transcript was cloned; expressed in transfected cells
T1 sequence (Q9NPH5 1-578): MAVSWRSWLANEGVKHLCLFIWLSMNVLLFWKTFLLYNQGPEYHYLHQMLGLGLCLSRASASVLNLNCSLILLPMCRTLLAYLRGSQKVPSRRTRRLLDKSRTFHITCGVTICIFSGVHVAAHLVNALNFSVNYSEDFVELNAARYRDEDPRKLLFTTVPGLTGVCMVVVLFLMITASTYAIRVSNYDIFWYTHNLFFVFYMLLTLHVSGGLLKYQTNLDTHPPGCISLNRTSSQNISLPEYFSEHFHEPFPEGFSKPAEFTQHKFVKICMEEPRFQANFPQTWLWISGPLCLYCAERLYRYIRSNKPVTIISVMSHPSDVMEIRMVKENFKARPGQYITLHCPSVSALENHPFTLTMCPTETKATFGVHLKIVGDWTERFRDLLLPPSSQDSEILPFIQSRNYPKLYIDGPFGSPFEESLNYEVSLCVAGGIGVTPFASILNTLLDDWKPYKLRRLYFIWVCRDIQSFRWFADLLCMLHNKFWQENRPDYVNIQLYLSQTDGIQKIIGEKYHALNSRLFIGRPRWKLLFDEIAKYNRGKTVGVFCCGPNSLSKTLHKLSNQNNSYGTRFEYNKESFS
T1 sequence (P13498 1-195 partner): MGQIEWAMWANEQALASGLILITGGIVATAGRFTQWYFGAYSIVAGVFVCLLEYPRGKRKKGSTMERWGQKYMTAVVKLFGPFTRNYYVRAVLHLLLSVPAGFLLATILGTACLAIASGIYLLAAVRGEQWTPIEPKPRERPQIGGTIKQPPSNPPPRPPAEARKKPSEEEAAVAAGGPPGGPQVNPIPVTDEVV
Briefly: Amplex Red activity assay (cellular H2O2 formation in hNOX4 T-REx-293 cells). The assay is classed as cell-based. As to conditions: tet-induced 24 h, extracellular H2O2 by Amplex Red, 60 min 25° C., geometric mean if determined several times. Summed up:
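Tet-induced (1 μg/mL, 24 h) HEK293 T-REx cells stably expressing full-length human NOX4, 20 000 cells/well, exposed to compounds (10 concentrations, 50 μM to 100 nM; 1.25% DMSO) for 60 min at 25°C. Extracellular H2O2 detected by Amplex Red resorufin fluorescence (ex 550/em 600 nm) versus vehicle; IC50 calculated.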
By IC50 is commonly meant the concentration needed to halve the response being measured. In the case of `O=C(Nc1ccc2oc(N3CCC(F)(F)CC3)nc2c1)c1ccc2c(c1)OCCO2` [Example 170, 2,3-Dihydro-benzo[1,4]dioxine-6-carboxylic acid [2-(4,4-difluoro-piperidin-1-yl)-benzooxazol-5-yl]-amide], the half-inhibitory concentration (IC50) is 0.899 µM. The value for `O=C(Nc1ccc2oc(N3CCCC4(COC4)C3)nc2c1)c1ccc2c(c1)OCCO2` [Example 171, 2,3-Dihydro-benzo[1,4]dioxine-6-carboxylic acid [2-(2-oxa-6-aza-spiro[3.5]non-6-yl)-benzooxazol-5-yl]-amide] was 0.792 µM. Regarding `O=C(Nc1ccc2oc(N3CCC4(CC3)COC4)nc2c1)c1ccc2c(c1)OCCO2` [Example 172, 2,3-Dihydro-benzo[1,4]dioxine-6-carboxylic acid [2-(2-oxa-7-aza-spiro[3.5]non-7-yl)-benzooxazol-5-yl]-amide], the IC50 stood at 8.85 µM.

As to `O=C(Nc1ccc2oc(N3CCOCC3)nc2c1)c1ccc2c(c1)OCCO2` [Example 173, 2,3-Dihydro-benzo[1,4]dioxine-6-carboxylic acid (2-morpholin-4-yl-benzooxazol-5-yl)-amide], the IC50 is 1.42 µM. The value for `CN1CCN(c2nc3cc(NC(=O)c4ccc5c(c4)OCCO5)ccc3o2)CC1` [Example 174, 2,3-Dihydro-benzo[1,4]dioxine-6-carboxylic acid [2-(4-methyl-piperazin-1-yl)-benzooxazol-5-yl]-amide] was 1.39 µM. The value for `CCN(CC)c1nc2cc(NC(=O)c3ccc4c(c3)OCCO4)ccc2o1` [Example 175, 2,3-Dihydro-benzo[1,4]dioxine-6-carboxylic acid (2-diethylamino-benzooxazol-5-yl)-amide] was 1.35 µM. The value for `O=C(Nc1ccc2oc(N(C3CC3)C3COC3)nc2c1)c1ccc2c(c1)OCCO2` [Example 176, 2,3-Dihydro-benzo[1,4]dioxine-6-carboxylic acid [2-(cyclopropyl-oxetan-3-yl-amino)-benzooxazol-5-yl]-amide] was 2.97 µM; that for `CN1CCOc2ccc(C(=O)Nc3ccc4oc(N5CC(O)C5)nc4c3)cc21` [Example 177, 4-Methyl-3,4-dihydro-2H-benzo[1,4]oxazine-6-carboxylic acid [2-(3-hydroxy-azetidin-1-yl)-benzooxazol-5-yl]-amide] was 6.87 µM; that for `CN1CCOc2ccc(C(=O)Nc3ccc4oc(N5CC(F)(F)C5)nc4c3)cc21` [Example 178, 4-Methyl-3,4-dihydro-2H-benzo[1,4]oxazine-6-carboxylic acid [2-(3,3-difluoro-azetidin-1-yl)-benzooxazol-5-yl]-amide] was 21.8 µM. On to `CN1CCOc2ccc(C(=O)Nc3ccc4oc(N5CCC56CCC6)nc4c3)cc21` [Example 179, 4-Methyl-3,4-dihydro-2H-benzo[1,4]oxazine-6-carboxylic acid [2-(1-aza-spiro[3.3]hept-1-yl)-benzooxazol-5-yl]-amide], for which the IC50 was 1.74 µM. In the case of `CN1CCOc2ccc(C(=O)Nc3ccc4oc(N5CCC56COC6)nc4c3)cc21` [Example 180, 4-Methyl-3,4-dihydro-2H-benzo[1,4]oxazine-6-carboxylic acid [2-(6-oxa-1-aza-spiro[3.3]hept-1-yl)-benzooxazol-5-yl]-amide] it was 1.77 µM; in that of `CN1CCOc2ccc(C(=O)Nc3ccc4oc(N5CCC56CCOC6)nc4c3)cc21` (centres unmarked) [Example 181, 4-Methyl-3,4-dihydro-2H-benzo[1,4]oxazine-6-carboxylic acid [2-(6-oxa-1-aza-spiro[3.4]oct-1-yl)-benzooxazol-5-yl]-amide], 2.44 µM; in that of `CN1CCOc2ccc(C(=O)Nc3ccc4oc(N5CCC56CCOCC6)nc4c3)cc21` [Example 182, 4-Methyl-3,4-dihydro-2H-benzo[1,4]oxazine-6-carboxylic acid [2-(7-oxa-1-aza-spiro[3.5]non-1-yl)-benzooxazol-5-yl]-amide], 3.39 µM. Consider `CN1CCOc2ccc(C(=O)Nc3ccc4oc(N5CCCC5)nc4c3)cc21` [Example 183, 4-Methyl-3,4-dihydro-2H-benzo[1,4]oxazine-6-carboxylic acid (2-pyrrolidin-1-yl-benzooxazol-5-yl)-amide], for which the IC50 is 8.7 µM.

As to `CN1CCOc2ccc(C(=O)Nc3ccc4oc(N5CCCC56COC6)nc4c3)cc21` [Example 184, 4-Methyl-3,4-dihydro-2H-benzo[1,4]oxazine-6-carboxylic acid [2-(2-oxa-5-aza-spiro[3.4]oct-5-yl)-benzooxazol-5-yl]-amide], the IC50 was 1.89 µM.

As to `CN1CCOc2ccc(C(=O)Nc3ccc4oc(N5CCCCC5)nc4c3)cc21` [Example 185, 4-Methyl-3,4-dihydro-2H-benzo[1,4]oxazine-6-carboxylic acid (2-piperidin-1-yl-benzooxazol-5-yl)-amide], the IC50 is 3.86 µM. The value for `CN1CCOc2ccc(C(=O)Nc3ccc4oc(N5CCC(O)CC5)nc4c3)cc21` [Example 186, 4-Methyl-3,4-dihydro-2H-benzo[1,4]oxazine-6-carboxylic acid [2-(4-hydroxy-piperidin-1-yl)-benzooxazol-5-yl]-amide] was 3.45 µM; that for `CN1CCOc2ccc(C(=O)Nc3ccc4oc(N5CCC(F)(F)CC5)nc4c3)cc21` [Example 187, 4-Methyl-3,4-dihydro-2H-benzo[1,4]oxazine-6-carboxylic acid [2-(4,4-difluoro-piperidin-1-yl)-benzooxazol-5-yl]-amide] was 3.39 µM.

Turning to `CN1CCOc2ccc(C(=O)Nc3ccc4oc(N5CCCC(F)(F)C5)nc4c3)cc21` [Example 188, 4-Methyl-3,4-dihydro-2H-benzo[1,4]oxazine-6-carboxylic acid [2-(3,3-difluoro-piperidin-1-yl)-benzooxazol-5-yl]-amide], the IC50 was 3.64 µM. With `CN1CCOc2ccc(C(=O)Nc3ccc4oc(N5CCCC6(COC6)C5)nc4c3)cc21` [Example 189, 4-Methyl-3,4-dihydro-2H-benzo[1,4]oxazine-6-carboxylic acid [2-(2-oxa-6-aza-spiro[3.5]non-6-yl)-benzooxazol-5-yl]-amide], the IC50 came out at 2.19 µM. With `CN1CCOc2ccc(C(=O)Nc3ccc4oc(N5CCC6(CC5)COC6)nc4c3)cc21` [Example 190, 4-Methyl-3,4-dihydro-2H-benzo[1,4]oxazine-6-carboxylic acid [2-(2-oxa-7-aza-spiro[3.5]non-7-yl)-benzooxazol-5-yl]-amide], the IC50 is 3.58 µM. The value for `COC1CCN(c2nc3cc(NC(=O)c4ccc5c(c4)N(C)CCO5)ccc3o2)CC1` [Example 191, 4-Methyl-3,4-dihydro-2H-benzo[1,4]oxazine-6-carboxylic acid [2-(4-methoxy-piperidin-1-yl)-benzooxazol-5-yl]-amide] was 4.38 µM; that for `CN1CCOc2ccc(C(=O)Nc3ccc4oc(N5CCOCC5)nc4c3)cc21` [Example 192, 4-Methyl-3,4-dihydro-2H-benzo[1,4]oxazine-6-carboxylic acid (2-morpholin-4-yl-benzooxazol-5-yl)-amide] was 4.32 µM; that for `CN1CCN(c2nc3cc(NC(=O)c4ccc5c(c4)N(C)CCO5)ccc3o2)CC1` [Example 193, 4-Methyl-3,4-dihydro-2H-benzo[1,4]oxazine-6-carboxylic acid [2-(4-methyl-piperazin-1-yl)-benzooxazol-5-yl]-amide] was 4.04 µM.

For `CCN(CC)c1nc2cc(NC(=O)c3ccc4c(c3)N(C)CCO4)ccc2o1` [Example 194, 4-Methyl-3,4-dihydro-2H-benzo[1,4]oxazine-6-carboxylic acid (2-diethylamino-benzooxazol-5-yl)-amide], the 50% inhibitory concentration (IC50) is 3.58 µM. As for `CN1CCOc2ccc(C(=O)Nc3ccc4oc(N(C5CC5)C5COC5)nc4c3)cc21` [Example 195, 4-Methyl-3,4-dihydro-2H-benzo[1,4]oxazine-6-carboxylic acid [2-(cyclopropyl-oxetan-3-yl-amino)-benzooxazol-5-yl]-amide], the IC50 was 4.44 µM.

In the case of `O=C(Nc1ccc2c(c1)CCO2)c1ccc2sc(N3CCCCC3)nc2c1` [Example 196, 2-Piperidin-1-yl-benzothiazole-5-carboxylic acid (2,3-dihydro-benzofuran-5-yl)-amide], the IC50 amounted to 2.56 µM. For `O=C(Nc1ccc2c(c1)CCO2)c1ccc2sc(N3CCC34COC4)nc2c1` [Example 197, 2-(6-Oxa-1-aza-spiro[3.3]hept-1-yl)-benzothiazole-5-carboxylic acid (2,3-dihydro-benzofuran-5-yl)-amide], the IC50 turned out to be 0.728 µM. Turning to `O=C(Nc1ccc2c(c1)CCO2)c1ccc2sc(N3CCC(F)(F)CC3)nc2c1` [Example 198, 2-(4,4-Difluoro-piperidin-1-yl)-benzothiazole-5-carboxylic acid (2,3-dihydro-benzofuran-5-yl)-amide], the IC50 was 45.2 µM.

These data come from patent US11136317B2, “NADPH oxidase 4 inhibitors” (ACTELION PHARMACEUTICALS LTD, priority 2015, dated 2021).
